The subject of data set [1] is primary tumor cells from MCL patients. The data set can be described thus: Cell viability by annexin-V/PI staining and flow cytometry. It counts as cell-based, human. Particulars: six MCL patients, 24 hours; FTY720 2.5 μM, immobilized milatuzumab 5 μg/ml. The procedure: FIG. 4. FTY720 sensitizes MCL cell lines and primary patient tumor cells to milatuzumab-mediated cytotoxicity. (A) Four MCL cell lines and primary cells from 6 patients were treated with FTY720 and/or milatuzumab plus cross-linking antibodies at the indicated concentrations. (B) Patient characteristics. (C) Individual patient responses. (D) Representative histograms summarizing patient responses. Cell death was determined by annexin V/PI staining and flow cytometry at 24 hours. Data are shown as the percentage of annexin V−/PI− cells (live cells) and are normalized to untreated controls.
Primary tumor cells were isolated from the peripheral blood/lymph nodes of patients with MCL. All patients studied were diagnosed with MCL according to the World Health Organization (WHO) classification of tumors (Swerdlow, 2008, World Health Organization Classification of Tumours of Haematopoetic and Lymphoid Tissues (ed 4th ed.) Lyon, France, International Agency on Research for Cancer). All samples contained at least 85% of CD19^+/CD20^+ B cells detected by flow cytometry. […]
To assess lysosomal volume, FTY720 treated cells were incubated with LYSOTRACKER™ green DND-26. […] Cell viability was measured at 24 hours by dual staining with annexin-V FITC and propidium iodide (PI). A total of 10,000 events were collected and analyzed using WinMDI. […]

In data set [2] the test system is Jeko cells engrafted in SCID mice. The data set is described as follows: Preclinical model of human MCL in SCID mice, survival. It counts as in vivo, mouse. Particulars: n=10/group, from day 15; FTY720 5 mg/kg i.p. daily 2 weeks; antibodies 15 mg/kg i.p. every three days.
Protocol: Evaluation of in vivo therapeutic activity of FTY720 and milatuzumab in the preclinical MCL model. SCID mice were injected i.v. with 40×10^6 JeKo cells and observed daily for signs of tumor burden.
Six to eight-week old female SCID mice (cb17 scid/scid) were purchased from Taconic Farms (Hudson, N.Y.) and maintained in pathogen-free, isolation cages. All animals were depleted of murine NK cells with intra-peritoneal (i.p.) injections of 0.2 mg of rat anti-mouse interleukin-2 receptor β monoclonal antibody (TMβ1) 1 day prior to engraftment with human tumor cell lines and then every week. Forty-eight hours post intravenous injection of 40×10^6 Jeko cells via tail vein, 50 mice were randomly distributed into 10 cages. Animals in groups of ten were treated starting at day 15 after engraftment. […] The third group was treated with FTY720 (5 mg/kg) every day for 2 weeks via i.p. The fourth group received milatuzumab (15 mg/kg) every three days, via i.p. injection. The fifth group received the combination of FTY720 and milatuzumab. Animals were monitored daily for signs of tumor burden, including hind limb paralysis, respiratory distress, weight loss, ruffled coat, and distended abdomen. Body weight was measured weekly for the first 3 weeks and then daily. […]
The next data set concerns Jeko-1. The note with it: Jeko-1, single agent, previous dose titration; read-out: LC50 (the source's name); cited from earlier work.
The next data set relates to Mino. Particulars: single agent, previous dose titration, read-out: LC50 (the source's name); cited from earlier work.
For a further data set, the system named is UPN-1. The note with it: UPN-1, single agent, previous dose titration; read-out: LC50 (the source's name); cited from earlier work.
The test system of another data set is Z-138. Particulars: Z-138, single agent, previous dose titration; read-out: LC50 (the source's name); cited from earlier work.
For data set [3] the following is noted: rat, 4 mg/kg single IV dose; cited from earlier work.
The conditions of data set [4]: single agents, same dosage and delivery schedule; cited from earlier work.
For data set [5] the following is noted: in subjects; cited from earlier work.
For data set [6], the system named is CD74 in 3 human AML cell lines. The data set is described as follows: Flow cytometry of CD74 with/without permeabilization and IFN-γ. It counts as cell-based. Particulars: 3 AML lines, IFN-γ 40 and 200 U/mL. The procedure: CD74 expression in bone marrow biopsy (BMB) specimens from non-M3 AML patients was evaluated by immunohistochemistry and, for 3 human AML cell lines, by flow cytometry, with/without permeabilization and with/without IFN-γ (40 and 200 U/mL). These cell lines were also tested in proliferation assays for responses to milatuzumab, with/without IFN-γ. In 13/14 BMB specimens, there was moderate to strong CD74 expression by leukemic blasts, which was mostly intracellular, usually with a perinuclear distribution (data not shown). […] IFN-γ induced intracellular CD74 in all 3 lines (from 85%-868%) (not shown).
For orientation: Flow cytometry measures light scatter and fluorescence of single cells or particles in a stream.

The subject of data set [7] is HLA-DR and CD74 in cancer cell lines. The data set is described as follows: Flow cytometry of antigen expression after IFN-γ, summary over the panel. It counts as cell-based. The note with it: two-day incubation with IFN-γ, Tables 4 and 5. The procedure:
We examined whether the ability of anti-CD74 MAbs to kill cancer cells can be increased by using IFN-γ as an inducer of antigen expression. Using a panel of diverse cancer cell lines (including NHL, MM, GBM, and pancreatic and colonic carcinomas), we examined IFN-γ-induced changes in surface and cytoplasmic CD74 expression. Sensitivity of the malignant cells to milatuzumab was assessed with and without IFN-γ by cytotoxicity assays.
Expression of CD74, HLA-DR, and carcinoembryonic antigen (CEACAM5) was determined in untreated cells and cells exposed to 200 U of IFN-γ for 48 h by flow cytometry. Cells were stained with directly labeled MAbs in comparison to a directly labeled human IgG control. Antibodies were labeled using ALEXA FLUOR® 488 (Invitrogen, Carlsbad, Calif.). For determination of cytoplasmic antigen expression, cells were permeabilized prior to staining using the BD CYTOFIX/CYTOPERM™ kit (BD Biosciences, San Jose, Calif.).
Two-day incubation with IFN-γ increased surface and cytoplasmic expression of CD74 and HLA-DR (Table 4, Table 5). In all 4 colon cancer lines, IFN-γ increased cytoplasmic expression of both antigens, and surface expression of HLA-DR in ¾ and CD74 in 2/4 (Table 4, Table 5). Upregulation of HLA-DR and CD74 ranged from 23-3700% (Table 4, Table 5).

With `CCCCCCCCc1ccc(CCC(N)(CO)CO)cc1` [FTY720, fingolimod], the average cell death in [1] was 47%. In addition, in data set [2], the median survival was 31 days. For the same molecule, the CC50 with Jeko-1 was 12.5 µM; in the data set with Mino it was 7.5 µM; in the data set with UPN-1 it was 7.5 µM; in the data set on Z-138, 7.5 µM. Moreover, in data set [3], the maximum plasma concentration was 3.5 µM. Further, in [4], the “weight loss or other side effects” value is “did not cause any observed weight loss or other significant side effects”.

Consider “veltuzumab: humanized IgG1 antibody against CD20”, for which, in [5], the immunogenicity result is on record as “less immunogenic in subjects than rituximab”.

B1: IFN-γ: interferon-γ, agent inducing CD74 expression (protein, UniProt P01579 24-161, looked up)
Interferon gamma: QDPYVKEAENLKKYFNAGHSDVADNGTLFLGILKNWKEESDRKIMQSQIVSFYFKLFKNFKDDQSIQKSVETIKEDMNVKFFNSNKKKRDDFEKLTNYSVTDLNVQRKAIHELIQVMAELSPAAKTGKRKRSQMLFRG
For the molecule B1, in data set [6], the “upregulation of surface CD74” value is recorded as 69-117%. The “upregulation of HLA-DR and CD74” value in data set [7] was 23-3700%.

The record behind these values is patent US8591892B2, “FTY720 increases CD74 expression and sensitizes cancer cells to anti-CD74 antibody-mediated cell death” (The Ohio State University, priority 2011, dated 2013).
